Measured values from patent publication US8952024B2, “Herbicidal pyrimidone derivatives” (E I du Pont de Nemours and Company, priority 2009, dated 2015).

What was measured:
Type in all cases: in vivo
[1] = tested on: bermudagrass (Cynodon dactylon); assay: Test B pre-/postemergence plant response
Description: (§1) Seeds of plant species selected from blackgrass (Alopecurus myosuroides), downy bromegrass (Bromus tectorum), green foxtail (Setaria viridis), Italian ryegrass (Lolium multiflorum), wheat (Triticum aestivum), wild oat (Avena fatua), deadnettle (henbit deadnettle, Lamium amplexicaule), galium (catchweed bedstraw, Galium aparine), bermudagrass (Cynodon dactylon), Surinam grass (Brachiaria decumbens), cocklebur (Xanthium strumarium), corn (Zea mays), large crabgrass (Digitaria sanguinalis), woolly cupgrass (Eriochloa villosa), giant foxtail (Setaria faberii), goosegrass (Eleusine indica), johnsongrass (Sorghum halepense), kochia (Kochia scoparia), lambsquarters (Chenopodium album), morningglory (Ipomoea coccinea), nightshade (eastern black nightshade, Solanum ptycanthum), yellow nutsedge (Cyperus esculentus), pigweed (Amaranthus retroflexus), ragweed (common ragweed, Ambrosia elatior), Russian thistle (Salsola kali), soybean (Glycine max), sunflower (common oilseed sunflower, Helianthus annuus) and velvetleaf (Abutilon theophrasti) were planted into a blend of loam soil and sand and treated preemergence with test compounds formulated in a non-phytotoxic solvent mixture which included a surfactant.
(§2) At the same time, plants selected from these crop and weed species and also winter barley (Hordeum vulgare), canarygrass (Phalaris minor), chickweed (Stellaria media) and windgrass (Apera spica-venti) were planted in pots containing Redi-Earth® planting medium (Scotts Company, 14111 Scottslawn Road, Marysville, Ohio 43041) comprising spaghnum peat moss, vermiculite, wetting agent and starter nutrients and treated with postemergence applications of some of the test chemicals formulated in the same manner. Plants ranged in height from 2 to 18 cm (1- to 4-leaf stage) for postemergence treatments.
(§3) Treated plants and controls were maintained in a greenhouse for 13 to 15 days, after which time all treated plants were visually evaluated and compared to controls. Plant response ratings, summarized in Table B, are based on a scale of 0 to 100 where 0 is no effect and 100 is complete control. A dash (-) response means no test result.

[2] = tested on: Surinam grass (Brachiaria decumbens); assay: Test B pre-/postemergence plant response
Description: as §1, §2, §3

[3] = tested on: pigweed (Amaranthus retroflexus); assay: Test B pre-/postemergence plant response
Description: as §1, §2, §3

[4] = tested on: downy bromegrass (Bromus tectorum); assay: Test B pre-/postemergence plant response
Description: as §1, §2, §3

[5] = tested on: woolly cupgrass (Eriochloa villosa); assay: Test B pre-/postemergence plant response
Description: as §1, §2, §3

[6] = tested on: lambsquarters (Chenopodium album); assay: Test B pre-/postemergence plant response
Description: as §1, §2, §3

[7] = tested on: yellow nutsedge (Cyperus esculentus); assay: Test B pre-/postemergence plant response
Description: as §1, §2, §3

[8] = tested on: wheat (Triticum aestivum); assay: Test B pre-/postemergence plant response
Description: as §1, §2, §3

[9] = tested on: umbrella sedge (Cyperus difformis); assay: Test B flooded paddy test; settings: for Plant response rating, Flood, Sedge, Umbrella: 250 g ai/ha, flooded paddy test, visual rating on 0 to 100 scale (0 no effect, 100 complete control) after 13 to 15 days; for Plant response rating, Sedge, Umbrella: Flood (flooded paddy test), 13 to 15 days
Procedure, shortened: (§4)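 Visual scores run from 0 (no effect) to 100 (complete control), assigned by comparison with controls 13 to 15 days after treatment. Test compounds went straight into water standing 3 cm above the soil, around plants at the 2-leaf stage kept in a greenhouse.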

[10] = tested on: barnyardgrass (Echinochloa crus-galli); assay: Test B flooded paddy test; settings: for Plant response rating, Flood, Barnyardgrass: 250 g ai/ha, flooded paddy test, visual rating on 0 to 100 scale (0 no effect, 100 complete control) after 13 to 15 days; for Plant response rating, Barnyardgrass: Flood (flooded paddy test), 13 to 15 days
Procedure, shortened: as §4

rice (Oryza sativa) = assay: Test B flooded paddy test; settings: for Plant response rating, Flood, Rice: 250 g ai/ha, flooded paddy test, visual rating on 0 to 100 scale (0 no effect, 100 complete control) after 13 to 15 days; for Plant response rating, Rice: Flood (flooded paddy test), 13 to 15 days
Procedure, shortened: as §4

[11] = tested on: ducksalad (Heteranthera limosa); assay: Test B flooded paddy test; settings: for Plant response rating, Flood, Ducksalad: 250 g ai/ha, flooded paddy test, visual rating on 0 to 100 scale (0 no effect, 100 complete control) after 13 to 15 days; for Plant response rating, Ducksalad: Flood (flooded paddy test), 13 to 15 days
Procedure, shortened: as §4

[12] = Postemergence, 31 g ai/ha, scale 0 to 100 (0 no effect, 100 complete control)
[13] = Postemergence, 62 g ai/ha, scale 0 (no effect) to 100 (complete control), 13 to 15 days
[14] = Postemergence, 125 g ai/ha, scale 0 to 100 (0 no effect, 100 complete control), 13 to 15 days
[15] = Postemergence, 250 g ai/ha, scale 0 to 100
[16] = Postemergence, 125 g ai/ha, visual rating after 13 to 15 days, scale 0 (no effect) to 100 (complete control)
[17] = 31 g ai/ha, scale of 0 to 100 where 0 is no effect and 100 is complete control
[18] = 62 g ai/ha, scale 0 to 100, 0 is no effect, 100 is complete control
[19] = 125 g ai/ha, scale 0 to 100, 0 is no effect, 100 is complete control
[20] = 250 g ai/ha, Preemergence, 0 to 100 scale
[21] = Preemergence, 31 g ai/ha, scale 0 to 100 (0 no effect, 100 complete control)
[22] = Preemergence, 62 g ai/ha, scale 0 to 100 (0 no effect, 100 complete control)
[23] = Preemergence, 125 g ai/ha, 0 to 100 scale

Cc1ccc(-n2c(-c3ccccc3)ncc(C(=O)C3=C(O)CCCC3=O)c2=O)cc1 [Compound 8]
75: Plant response rating, Surinam Grass [2, 16] | Plant response rating, Cupgrass, Woolly [5, 12]
80: Surinam Grass plant response rating [2, 15] | Plant response rating, Cupgrass, Woolly [5, 13] | Plant response rating, Nutsedge, Yellow [7, 16]
85: Plant response rating, Bermudagrass [1, 13] | Nutsedge, Yellow plant response rating [7, 15] | Plant response rating, Sedge, Umbrella [9, 19] | Plant response rating, Ducksalad [11, 18] | Plant response rating, Ducksalad [11, 19]
5: Plant response rating, Bromegrass, Downy [4, 12] | Plant response rating, Bromegrass, Downy [4, 13]
90: Plant response rating, Cupgrass, Woolly [5, 16] | Plant response rating, Flood, Ducksalad [11]
10: Plant response rating, Bromegrass, Downy [4, 16] | Bromegrass, Downy plant response rating [4, 15]
35: Plant response rating, Wheat [8, 16] | Wheat plant response rating [8, 15]
25: Plant response rating, Wheat [8, 12]
15: Plant response rating, Rice (rice (Oryza sativa); [19])
98: Plant response rating, Pigweed [3, 12]
30: Plant response rating, Wheat [8, 13] | Plant response rating, Sedge, Umbrella [9, 17] | Plant response rating, Ducksalad [11, 17]
70: Plant response rating, Nutsedge, Yellow [7, 13]
50: Plant response rating, Flood, Rice (rice (Oryza sativa))
20: Plant response rating, Barnyardgrass [10, 19]
60: Plant response rating, Bermudagrass [1, 12] | Plant response rating, Surinam Grass [2, 12]
45: Plant response rating, Flood, Barnyardgrass [10]
0: Plant response rating, Barnyardgrass [10, 17] | Plant response rating, Barnyardgrass [10, 18] | Plant response rating, Rice (rice (Oryza sativa); [17]) | Plant response rating, Rice (rice (Oryza sativa); [18])
95: Plant response rating, Bermudagrass [1, 14] | Plant response rating, Lambsquarters [6, 12] | Plant response rating, Flood, Sedge, Umbrella [9]
100: Bermudagrass plant response rating [1, 15] | Plant response rating, Pigweed [3, 13] | Plant response rating, Pigweed [3, 16] | Pigweed plant response rating [3, 15] | Cupgrass, Woolly plant response rating [5, 15] | Plant response rating, Lambsquarters [6, 13] | Plant response rating, Lambsquarters [6, 16] | Lambsquarters plant response rating [6, 15]
65: Plant response rating, Surinam Grass [2, 13] | Plant response rating, Nutsedge, Yellow [7, 12] | Plant response rating, Sedge, Umbrella [9, 18]

Cc1ccccc1-n1c(-c2ccccc2)ncc(C(=O)C2=C(O)CCCC2=O)c1=O [Compound 12]
100: Plant response rating, Bermudagrass [1, 20] | Bermudagrass plant response rating [1, 15] | Plant response rating, Bermudagrass [1, 21] | Plant response rating, Bermudagrass [1, 22] | Bermudagrass plant response rating [1, 23] | Plant response rating, Surinam Grass [2, 20] | Plant response rating, Pigweed [3, 20] | Pigweed plant response rating [3, 15] | Plant response rating, Pigweed [3, 21] | Plant response rating, Pigweed [3, 22] | Pigweed plant response rating [3, 23] | Plant response rating, Lambsquarters [6, 20] | Plant response rating, Lambsquarters [6, 21] | Plant response rating, Lambsquarters [6, 22] | Lambsquarters plant response rating [6, 23]
20: Plant response rating, Bromegrass, Downy [4, 16] | Bromegrass, Downy plant response rating [4, 15] | Plant response rating, Sedge, Umbrella [9, 17]
75: Cupgrass, Woolly plant response rating [5, 23] | Nutsedge, Yellow plant response rating [7, 23]
80: Cupgrass, Woolly plant response rating [5, 15] | Plant response rating, Lambsquarters [6, 12] | Nutsedge, Yellow plant response rating [7, 15]
65: Plant response rating, Bermudagrass [1, 12] | Plant response rating, Surinam Grass [2, 16] | Plant response rating, Nutsedge, Yellow [7, 16] | Plant response rating, Flood, Sedge, Umbrella [9]
0: Plant response rating, Bromegrass, Downy [4, 20] | Plant response rating, Bromegrass, Downy [4, 21] | Plant response rating, Bromegrass, Downy [4, 22] | Bromegrass, Downy plant response rating [4, 23] | Plant response rating, Cupgrass, Woolly [5, 21] | Plant response rating, Wheat [8, 20] | Plant response rating, Wheat [8, 12] | Plant response rating, Wheat [8, 13] | Plant response rating, Wheat [8, 16] | Wheat plant response rating [8, 15] | Plant response rating, Wheat [8, 21] | Plant response rating, Wheat [8, 22] | Wheat plant response rating [8, 23] | Plant response rating, Flood, Barnyardgrass [10] | Plant response rating, Barnyardgrass [10, 17] | Plant response rating, Barnyardgrass [10, 18] | Plant response rating, Barnyardgrass [10, 19] | Plant response rating, Flood, Rice (rice (Oryza sativa)) | Plant response rating, Rice (rice (Oryza sativa); [17]) | Plant response rating, Rice (rice (Oryza sativa); [18]) | Plant response rating, Rice (rice (Oryza sativa); [19]) | Plant response rating, Ducksalad [11, 17]
90: Plant response rating, Nutsedge, Yellow [7, 20]
60: Plant response rating, Surinam Grass [2, 22] | Plant response rating, Cupgrass, Woolly [5, 13] | Plant response rating, Nutsedge, Yellow [7, 22]
85: Plant response rating, Bermudagrass [1, 13] | Surinam Grass plant response rating [2, 15] | Plant response rating, Cupgrass, Woolly [5, 20] | Plant response rating, Lambsquarters [6, 13]
25: Plant response rating, Surinam Grass [2, 12] | Plant response rating, Nutsedge, Yellow [7, 21] | Plant response rating, Ducksalad [11, 18]
40: Plant response rating, Sedge, Umbrella [9, 18]
5: Plant response rating, Bromegrass, Downy [4, 12]
35: Plant response rating, Surinam Grass [2, 21] | Plant response rating, Ducksalad [11, 19]
70: Plant response rating, Cupgrass, Woolly [5, 16]
98: Plant response rating, Bermudagrass [1, 14] | Plant response rating, Pigweed [3, 16] | Plant response rating, Lambsquarters [6, 16] | Lambsquarters plant response rating [6, 15]
55: Plant response rating, Surinam Grass [2, 13] | Plant response rating, Cupgrass, Woolly [5, 12] | Plant response rating, Nutsedge, Yellow [7, 13] | Plant response rating, Flood, Ducksalad [11]
15: Plant response rating, Nutsedge, Yellow [7, 12]
95: Surinam Grass plant response rating [2, 23] | Plant response rating, Pigweed [3, 12] | Plant response rating, Pigweed [3, 13]
50: Plant response rating, Sedge, Umbrella [9, 19]
10: Plant response rating, Bromegrass, Downy [4, 13] | Plant response rating, Cupgrass, Woolly [5, 22]
